According to publication PMC10831071, “Reaction hijacking inhibition of Plasmodium falciparum asparagine tRNA synthetase” (Nature Communications, 2024):
Values joined by “and” are separate entries in the source; they are usually repeats but may differ in a detail not shown here. Identical values can stand only once.

Assays:
[1] = system: P. falciparum Dd2-B2 clone; test: microbe, parasite or virus in culture; assay type: cell-based, Plasmodium falciparum; settings: Plasmodium falciparum, DD2
Excerpt: Wells were monitored daily by smear during the first 7 days to ensure parasite clearance, during which media was changed daily. […] Whole-genome sequencing analysis employed MiSeq data from libraries of 2 × 300 bp paired end reads.

[2] = system: protein translation in P. falciparum trophozoites (Cam3.II-rev); test: Protein translation assay (OPP incorporation); assay type: cell-based, Plasmodium falciparum; settings: for Translation: 6 h exposure, individual experiments, 0 nM = 100
Description: O-propargyl-puromycin (OPP) (Abcam) was added to the culture and incubated for a further 2 h. Parasites were washed three times in 1 × PBS (Gibco™) and fixed with 4% formaldehyde (Polysciences) and 0.02% glutaraldehyde (Sigma) in 1 × PBS for 20 min at room temperature (RT). Cells were washed two times with buffer A (3% human serum in 1 × PBS). Pellets were permeabilized in buffer A containing 0.05% Triton® X-100 and washed two times with buffer A. Fixed-permeabilized cells were subjected to copper-catalyzed azide–alkyne cycloaddition (CuAAC) at 37 °C for 1 h in the presence of 0.1 mM CuSO4, 0.5 mM THPTA, 5 mM sodium ascorbate, and 0.1 μM Alexa Fluor 488 azide in buffer A. Pellets were washed four times in buffer A and resuspended in buffer A containing 25 μg/ml propidium iodide (Invitrogen™). Cells were interrogated by flow cytometry (FACS Canto II; BD Biosciences, San Jose, CA) using FITC and Cy™5.5 channels.

PfAsnRS [3] = molecular target: PfAsnRS (Plasmodium falciparum, UniProt O96198); test: biochemical
PfAsnRS [4] = test: LC-MS of Asn-OSM-S-106 adduct generated by recombinant PfAsnRS; assay type: biochemical, Plasmodium falciparum; settings: 1 μM PfAsnRS, 10 μM OSM-S-106, 1 h, 37 °C; individual experiments
Description: (§1) The reaction buffer consists of 100 mM HEPES pH 7.5 (KOH), 160 mM KCl, 3.5 mM MgCl2, 1 mM DTT. The mixture was incubated at 37 °C for 1 h. After that, an equal volume of 8 M urea was added to the mixture. Finally, trifluoroacetic acid was added to a final concentration of 1%. The sample was centrifuged at 15,000 × g for 10 min and the supernatant was used for LCMS analysis. […] Quantification of the conjugates was done using Skyline (version 21.1.0.278).
(§2) Samples were analyzed by reversed-phase ultra-high-performance liquid chromatography (UHPLC) coupled to tandem mass spectrometry (MS/MS) employing a Vanquish UHPLC linked to an Orbitrap Fusion Lumos mass spectrometer (Thermo Fisher Scientific, San Jose, CA, USA) operated in positive ion mode. Solvent A was 0.1% formic acid/10 mM ammonium acetate in water and solvent B was 0.1% formic acid/10 mM ammonium acetate in acetonitrile. […] Finally, the percentage of solvent B was decreased to 0% in 0.1 min and maintained for 3.9 min.
(§3) MS experiments were performed using a Heated Electrospray Ionization (HESI) source. The spray voltage, flow rate of sheath, auxiliary and sweep gases were 3.5 kV, 20, 6, and 1 ‘arbitrary’ unit(s), respectively. The ion transfer tube and vaporizer temperatures were maintained at 350 °C and 400 °C, respectively, and the S-Lens RF level was set at 50%. […]

HsAsnRS = molecular target: T1, HsAsnRS (Homo sapiens, UniProt O43776); test: LC-MS of Asn-OSM-S-106 adduct generated by recombinant HsAsnRS; assay type: biochemical
T1 construct: HsAsnRS (residues M1–P548) and CDHsAsnRS (residues A98–P548); His6 (N, cleaved yes); made in house; host or cells: E. coli BL21 (DE3), pET11a
T1 sequence (O43776 1-548): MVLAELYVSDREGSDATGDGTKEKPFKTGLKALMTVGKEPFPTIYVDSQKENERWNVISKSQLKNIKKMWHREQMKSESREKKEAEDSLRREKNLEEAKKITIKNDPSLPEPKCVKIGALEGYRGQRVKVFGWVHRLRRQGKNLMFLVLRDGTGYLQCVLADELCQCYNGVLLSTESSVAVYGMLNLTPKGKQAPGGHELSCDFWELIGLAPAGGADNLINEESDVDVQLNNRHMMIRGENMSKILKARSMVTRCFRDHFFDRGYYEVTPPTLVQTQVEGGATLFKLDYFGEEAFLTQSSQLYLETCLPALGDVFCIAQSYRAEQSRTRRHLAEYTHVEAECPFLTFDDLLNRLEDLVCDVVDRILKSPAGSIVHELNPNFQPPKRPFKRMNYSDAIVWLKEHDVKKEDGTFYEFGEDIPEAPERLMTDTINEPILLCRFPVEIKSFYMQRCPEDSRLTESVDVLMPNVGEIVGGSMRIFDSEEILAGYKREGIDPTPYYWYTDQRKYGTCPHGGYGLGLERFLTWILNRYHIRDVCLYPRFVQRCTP
Description: as §1, §2, §3

PfAsnRS (Plasmodium falciparum, UniProt O96198), sequence (O96198 entry or part of it): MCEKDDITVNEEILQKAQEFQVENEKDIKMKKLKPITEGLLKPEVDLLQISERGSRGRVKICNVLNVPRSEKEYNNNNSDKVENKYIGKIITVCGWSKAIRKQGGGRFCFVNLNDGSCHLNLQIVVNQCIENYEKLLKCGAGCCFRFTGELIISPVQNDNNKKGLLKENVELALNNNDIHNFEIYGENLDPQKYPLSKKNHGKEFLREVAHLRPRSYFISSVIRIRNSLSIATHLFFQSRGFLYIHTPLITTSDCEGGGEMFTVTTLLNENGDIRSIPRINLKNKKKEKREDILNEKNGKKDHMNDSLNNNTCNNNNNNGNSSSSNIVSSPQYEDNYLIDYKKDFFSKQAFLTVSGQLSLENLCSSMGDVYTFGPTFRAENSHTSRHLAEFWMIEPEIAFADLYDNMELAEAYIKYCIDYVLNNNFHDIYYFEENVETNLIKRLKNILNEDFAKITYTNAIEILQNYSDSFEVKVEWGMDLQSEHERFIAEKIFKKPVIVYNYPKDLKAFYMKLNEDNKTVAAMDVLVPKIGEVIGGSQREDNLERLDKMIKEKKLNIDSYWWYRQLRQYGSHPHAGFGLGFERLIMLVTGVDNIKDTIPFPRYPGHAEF

Nc1ncnc2cc(-c3cccc(S(N)(=O)=O)c3)sc12 [OSM-S-106]
IC50 [1]: 88.9 nM | IC90 [1]: 169 nM | Translation ([2]; 78.1 nM): 88.2194 and 68.5604 and 78.7165 | Translation ([2]; 156.3 nM): 70.9569 and 76.7178 and 73.7965 | Translation ([2]; 312.5 nM): 55.5714 and 55.4781 and 55.6229 | Translation ([2]; 625 nM): 47.9476 and 51.4282 and 41.085 | Translation ([2]; 1250 nM): 31.8914 and 46.8967 and 33.6793 | Translation ([2]; 2500 nM): 20.1284 and 25.4073 and 16.4444 | Translation ([2]; 5000 nM): 10.3606 and 16.5158 and 20.3119 | Translation ([2]; 10000 nM): 7.683 and 13.3898 and 13.8481 | Translation ([2]; 20000 nM): 7.414 and 4.917 and 2.903 | Translation ([2]; 40000 nM): 7.804 and 8.474 and 8.853 | IC50 ([2]; Plasmodium falciparum, read-out: IC50 (Translation)): 510 nM | ATP consumption (PfAsnRS [3]; 0.1 μM OSM-S-106, PfAsnRS + tRNA, 0 μM = 100, 0.1 µM): 82.5658 and 96.0922 | ATP consumption (PfAsnRS [3]; 0.1 μM OSM-S-106, PfAsnRS - tRNA, 0 μM = 100, 0.1 µM): 102.037 and 98.4072 and 106.756 and 97.2403 and 101.662 | ATP consumption (PfAsnRS [3]; 0.1 μM OSM-S-106, PfAsnRS, normalised to 1 (Fig 3C), 0.1 µM): 0.9643 and 0.9875 | ATP consumption (PfAsnRS [3]; 1 μM OSM-S-106, PfAsnRS + tRNA, 0 μM = 100, 1 µM): 57.1862 and 87.1941 | ATP consumption (PfAsnRS [3]; 1 μM OSM-S-106, PfAsnRS - tRNA, 0 μM = 100, 1 µM): 113.687 and 120.029 and 93.4234 and 93.1495 and 103.899 | ATP consumption (PfAsnRS [3]; 1 μM OSM-S-106, PfAsnRS, normalised to 1 (Fig 3C), 1 µM): 0.7028 and 0.7102 | ATP consumption (PfAsnRS [3]; 3 μM OSM-S-106, PfAsnRS, normalised to 1 (Fig 3C), 3 µM): 0.5774 and 0.6156 | ATP consumption (PfAsnRS [3]; 5 μM OSM-S-106, PfAsnRS + tRNA, 0 μM = 100, 5 µM): 38.7619 and 47.6862 | ATP consumption (PfAsnRS [3]; 5 μM OSM-S-106, PfAsnRS - tRNA, 0 μM = 100, 5 µM): 106.249 and 114.714 and 99.7656 and 89.6731 and 97.6484 | ATP consumption (PfAsnRS [3]; 10 μM OSM-S-106, PfAsnRS + tRNA, 0 μM = 100, 10 µM): 33.3781 and 42.1739 | ATP consumption (PfAsnRS [3]; 10 μM OSM-S-106, PfAsnRS - tRNA, 0 μM = 100, 10 µM): 118.679 and 119.307 and 117.388 and 114.394 and 95.1041 and 101.36 | ATP consumption (PfAsnRS [3]; 10 μM OSM-S-106, PfAsnRS, normalised to 1 (Fig 3C), 10 µM): 0.4326 and 0.4705 | ATP consumption (PfAsnRS [3]; 25 μM OSM-S-106, PfAsnRS + tRNA, 0 μM = 100, 25 µM): 31.8347 and 29.629 | ATP consumption (PfAsnRS [3]; 25 μM OSM-S-106, PfAsnRS - tRNA, 0 μM = 100, 25 µM): 125.392 and 106.541 and 117.104 and 104.95 and 102.467 and 90.9619 | ATP consumption (PfAsnRS [3]; 30 μM OSM-S-106, PfAsnRS, normalised to 1 (Fig 3C), 30 µM): 0.3585 and 0.3795 | ATP consumption (PfAsnRS [3]; 100 μM OSM-S-106, PfAsnRS + tRNA, 0 μM = 100, 100 µM): 21.4279 and 12.1476 | ATP consumption (PfAsnRS [3]; 100 μM OSM-S-106, PfAsnRS - tRNA, 0 μM = 100, 100 µM): 100.893 and 101.422 and 99.2831 and 94.8016 and 84.8517 | ATP consumption (PfAsnRS [3]; 100 μM OSM-S-106, PfAsnRS, normalised to 1 (Fig 3C), 100 µM): 0.3092 and 0.3431 | ATP consumption (PfAsnRS [3]; 200 μM OSM-S-106, PfAsnRS - tRNA, 0 μM = 100, 200 µM): 112.741 and 109.993 and 91.5345 and 106.529 and 72.1689 | ATP consumption (PfAsnRS [3]; 200 μM OSM-S-106, PfAsnRS, normalised to 1 (Fig 3C), 200 µM): 0.2731 and 0.3306 | ATP consumption (PfAsnRS [3]; 500 μM OSM-S-106, PfAsnRS - tRNA, 0 μM = 100, 500 µM): 107.256 and 120.979 and 131.723 and 125.52 and 90.3898 and 80.1015 | IC50 (PfAsnRS [3]; IC50, ATP consumption, 0.05 μM PfAsnRS, E. coli tRNA present, 37 °C, 1 h (Fig. 3C, D)): 6200 nM | IC50 (PfAsnRS [3]; IC50, ATP consumption, minus E. coli tRNA, 0.5 μM enzyme, […] (Fig. 3B)): > 500000 nM | IC50 (PfAsnRS [3]; IC50, ATP consumption, plus E. coli tRNA, 0.5 μM enzyme, 37 °C, […] (Fig. 3B)): 7300 nM | IC50 (PfAsnRS [3]; concentration needed to induce 50% inhibition of ATP consumption): ~1000 nM | MS peak area (Asn-OSM-S-106 adduct) (PfAsnRS [4]): 50050244 and 46285516 and 50264000 and 46572204 | MS peak area (Asn-OSM-S-106 adduct) (HsAsnRS; 1 μM HsAsnRS, 10 μM OSM-S-106, 1 h, 37 °C, individual experiments): 3564405 and 3396334 and 2555457 and 1397007 | Asn-OSM-S-106 signal intensity with HsAsnRS, lower than with PfAsnRS (HsAsnRS; 10 μM OSM-S-106, ATP, Asn, E. coli tRNA): 18 fold
